Assay results reported in BindingDB's records for doi:10.1021/jm950932r (National Institute of Diabetes and Digestive and Kidney …, 1996).

Test: Compound was evaluated for inhibition of hormone stimulated Adenylate cyclase activity in N18TG2 membranes.

Structure (SMILES)	EC50
O=C(c1cccc2ccccc12)c1cn(CCN2CCOCC2)c2ccccc12	275 nM
Cc1c(C(=O)c2cccc3ccccc23)c2ccccc2n1CCN1CCOCC1	370 nM
Cc1c(C(=O)c2ccc(N=C=S)c3ccccc23)c2ccccc2n1CCN1CCOCC1 [(4-Isothiocyanato-naphthalen-1-yl)-[2-methyl-1-(2-morpholin-4-yl-ethyl)-1H-indol-3-yl]-methanone]	3000 nM
O=C(c1cccc2ccccc12)c1cn(CCN2CCOCC2)c2cc(N=C=S)ccc12 [[6-Isothiocyanato-1-(2-morpholin-4-yl-ethyl)-1H-indol-3-yl]-naphthalen-1-yl-methanone]	1100 nM
